#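 These data come from cells grown in 96-well plates and exposed to compound for 48 hours at five concentrations. GI50 is the concentration that inhibits growth by half.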 Calls of active or inactive are those of the source. Cut-off read from the data, not from the text of the source: active = GI50 up to about 1.1 µM and inactive = higher.
# Assays:
# Experiment in all cases: inhibition of tumour cell growth, NCI panel, 48 h
# [1] = system: HL-60
# [2] = system: HT-29
# [3] = system: HOP-62
# [4] = system: LXFL 529
# [5] = system: OVCAR-5
# [6] = system: NCI-H226
# [7] = system: SNB-19
# [8] = system: XF498
# [9] = system: HOP-92
# [10] = system: UACC-62
# [11] = system: SW-620
# [12] = system: RPMI-8226
# [13] = system: CAKI-1
# [14] = system: SNB-75
# [15] = system: U-251
# [16] = system: SK-MEL-28
# [17] = system: Malme-3M
# [18] = system: UACC-257
# [19] = system: M19-MEL
# [20] = system: OVCAR-3
# [21] = system: MOLT-4
# [22] = system: NCI-H460
# [23] = system: SF-268
# [24] = system: K562
# [25] = system: NCI-H522
# [26] = system: SN12C
# [27] = system: UO-31
# [28] = system: COLO 205
# [29] = system: NCI-H23
# [30] = system: KM12
# [31] = system: SK-OV-3
# [32] = system: CCRF-CEM
# [33] = system: M14
# [34] = system: OVCAR-8
# [35] = system: SK-MEL-2
# [36] = system: 786-0
# [37] = system: ACHN
# [38] = system: SF-295
# [39] = system: DLD-1
# [40] = system: A498
# [41] = system: EKVX
# [42] = system: OVCAR-4
# [43] = system: A549
# [44] = system: SR
# [45] = system: SNB-78
# [46] = system: DMS-114
# [47] = system: TK-10
# [48] = system: IGROV-1
# [49] = system: HCT-116
# [50] = system: HCT-15
# [51] = system: RXF 393
# [52] = system: SF-539
# [53] = system: HCC 2998
# [54] = system: KM-20L2
# [55] = system: LOX IMVI
# [56] = system: DMS-273
# [57] = system: SK-MEL-5
# [58] = system: PC-3
# [59] = system: MCF7
# [60] = system: BT-549
# [61] = system: MDA-N
# [62] = system: NCI/ADR-RES
# [63] = system: T47D
# [64] = system: MDA-MB-435
# [65] = system: DU-145
# [66] = system: Hs-578T
# [67] = system: MDA-MB-231
smiles,measurement,setting,value
O=C1OCCC1C(O)C1c2ccccc2-c2ccccc21 (centres undefined),GI50,[1],> 100 µM (inactive)
same,GI50,[2],> 100 µM (inactive)
same,GI50,[3],> 100 µM (inactive)
same,GI50,[4],> 100 µM (inactive)
same,GI50,[5],> 100 µM (inactive)
same,GI50,[6],> 100 µM (inactive)
same,GI50,[7],> 100 µM (inactive)
same,GI50,[8],17.8 µM (inactive)
same,GI50,[9],> 100 µM (inactive)
same,GI50,[10],> 100 µM (inactive)
same,GI50,[11],> 100 µM (inactive)
same,GI50,[12],> 100 µM (inactive)
same,GI50,[13],> 100 µM (inactive)
same,GI50,[14],> 100 µM (inactive)
same,GI50,[15],> 100 µM (inactive)
same,GI50,[16],> 100 µM (inactive)
same,GI50,[17],> 100 µM (inactive)
same,GI50,[18],> 100 µM (inactive)
same,GI50,[19],> 100 µM (inactive)
same,GI50,[20],> 100 µM (inactive)
same,GI50,[21],> 100 µM (inactive)
same,GI50,[22],> 100 µM (inactive)
same,GI50,[23],> 100 µM (inactive)
same,GI50,[24],> 100 µM (inactive)
same,GI50,[25],> 100 µM (inactive)
same,GI50,[26],> 100 µM (inactive)
same,GI50,[27],> 100 µM (inactive)
same,GI50,[28],> 100 µM (inactive)
same,GI50,[29],> 100 µM (inactive)
same,GI50,[30],> 100 µM (inactive)
same,GI50,[31],> 100 µM (inactive)
same,GI50,[32],> 100 µM (inactive)
same,GI50,[33],> 100 µM (inactive)
same,GI50,[34],> 100 µM (inactive)
same,GI50,[35],> 100 µM (inactive)
same,GI50,[36],> 100 µM (inactive)
same,GI50,[37],> 100 µM (inactive)
same,GI50,[38],> 100 µM (inactive)
same,GI50,[39],> 100 µM (inactive)
same,GI50,[40],> 100 µM (inactive)
same,GI50,[41],> 100 µM (inactive)
same,GI50,[42],> 100 µM (inactive)
same,GI50,[43],> 100 µM (inactive)
same,GI50,[44],> 100 µM (inactive)
same,GI50,[45],> 100 µM (inactive)
same,GI50,[46],> 100 µM (inactive)
same,GI50,[47],> 100 µM (inactive)
same,GI50,[48],> 100 µM (inactive)
same,GI50,[49],> 100 µM (inactive)
CC(C)C(C)C(C)(C)P(C)(C)=O (centres undefined),GI50,[2],> 100 µM (inactive)
same,GI50,[3],> 100 µM (inactive)
same,GI50,[4],> 100 µM (inactive)
same,GI50,[50],> 100 µM
same,GI50,[5],> 100 µM (inactive)
same,GI50,[6],> 100 µM (inactive)
same,GI50,[7],> 100 µM (inactive)
same,GI50,[8],> 100 µM (inactive)
same,GI50,[10],> 100 µM (inactive)
same,GI50,[51],> 100 µM (inactive)
same,GI50,[14],> 100 µM (inactive)
same,GI50,[15],> 100 µM (inactive)
same,GI50,[52],> 100 µM (inactive)
same,GI50,[16],> 100 µM (inactive)
same,GI50,[17],> 100 µM (inactive)
same,GI50,[18],> 100 µM (inactive)
same,GI50,[19],> 100 µM (inactive)
same,GI50,[20],> 100 µM (inactive)
same,GI50,[22],> 100 µM (inactive)
same,GI50,[23],> 100 µM (inactive)
same,GI50,[26],> 100 µM (inactive)
same,GI50,[53],> 100 µM (inactive)
same,GI50,[54],> 100 µM (inactive)
same,GI50,[27],> 100 µM (inactive)
same,GI50,[55],> 100 µM (inactive)
same,GI50,[29],> 100 µM (inactive)
same,GI50,[30],> 100 µM (inactive)
same,GI50,[31],> 100 µM (inactive)
same,GI50,[33],> 100 µM (inactive)
same,GI50,[35],> 100 µM (inactive)
same,GI50,[37],> 100 µM (inactive)
same,GI50,[39],> 100 µM (inactive)
same,GI50,[41],> 100 µM (inactive)
same,GI50,[42],> 100 µM (inactive)
same,GI50,[45],> 100 µM (inactive)
same,GI50,[46],> 100 µM (inactive)
same,GI50,[47],> 100 µM (inactive)
same,GI50,[49],> 100 µM (inactive)
CNC(=O)N(CCCC(NC(C)=O)C(=O)NCc1ccccc1)Cc1ccccc1 (centres undefined),GI50,[2],> 100 µM (inactive)
same,GI50,[3],> 100 µM (inactive)
same,GI50,[4],> 100 µM (inactive)
same,GI50,[50],> 100 µM
same,GI50,[5],> 100 µM (inactive)
same,GI50,[6],> 100 µM (inactive)
same,GI50,[7],> 100 µM (inactive)
same,GI50,[8],> 100 µM (inactive)
same,GI50,[9],> 100 µM (inactive)
same,GI50,[10],> 100 µM (inactive)
same,GI50,[11],> 100 µM (inactive)
same,GI50,[12],> 100 µM (inactive)
same,GI50,[13],> 100 µM (inactive)
same,GI50,[51],> 100 µM (inactive)
same,GI50,[14],28.6 µM (inactive)
same,GI50,[15],> 100 µM (inactive)
same,GI50,[52],> 100 µM (inactive)
same,GI50,[16],> 100 µM (inactive)
same,GI50,[17],> 100 µM (inactive)
same,GI50,[18],> 100 µM (inactive)
same,GI50,[19],> 100 µM (inactive)
same,GI50,[20],> 100 µM (inactive)
same,GI50,[21],> 100 µM (inactive)
same,GI50,[22],> 100 µM (inactive)
same,GI50,[23],> 100 µM (inactive)
same,GI50,[24],> 100 µM (inactive)
same,GI50,[25],> 100 µM (inactive)
same,GI50,[26],> 100 µM (inactive)
same,GI50,[53],> 100 µM (inactive)
same,GI50,[54],> 100 µM (inactive)
same,GI50,[27],> 100 µM (inactive)
same,GI50,[55],> 100 µM (inactive)
same,GI50,[28],> 100 µM (inactive)
same,GI50,[29],> 100 µM (inactive)
same,GI50,[30],> 100 µM (inactive)
same,GI50,[31],> 100 µM (inactive)
same,GI50,[32],> 100 µM (inactive)
same,GI50,[33],> 100 µM (inactive)
same,GI50,[34],> 100 µM (inactive)
same,GI50,[35],> 100 µM (inactive)
same,GI50,[36],> 100 µM (inactive)
same,GI50,[37],> 100 µM (inactive)
same,GI50,[38],> 100 µM (inactive)
same,GI50,[56],> 100 µM (inactive)
same,GI50,[39],> 100 µM (inactive)
same,GI50,[40],> 100 µM (inactive)
same,GI50,[57],> 100 µM (inactive)
same,GI50,[41],> 100 µM (inactive)
same,GI50,[42],> 100 µM (inactive)
same,GI50,[43],> 100 µM (inactive)
same,GI50,[45],> 100 µM (inactive)
same,GI50,[46],> 100 µM (inactive)
same,GI50,[47],> 100 µM (inactive)
same,GI50,[48],> 100 µM (inactive)
same,GI50,[49],> 100 µM (inactive)
Cc1[nH]c(=O)[nH]c(=O)c1N(CCF)CCCl [FLUORODOPAN],GI50,[58],363 µM (inactive)
same,GI50,[1],70.8 µM (inactive)
same,GI50,[2],442 µM (inactive)
same,GI50,[3],318 µM (inactive)
same,GI50,[59],256 µM (inactive)
same,GI50,[5],483 µM (inactive)
same,GI50,[6],560 µM (inactive)
same,GI50,[7],316 µM (inactive)
same,GI50,[9],109 µM (inactive)
same,GI50,[10],283 µM (inactive)
same,GI50,[13],181 µM (inactive)
same,GI50,[60],344 µM (inactive)
same,GI50,[51],219 µM (inactive)
same,GI50,[15],369 µM (inactive)
same,GI50,[52],199 µM (inactive)
same,GI50,[16],420 µM (inactive)
same,GI50,[17],349 µM (inactive)
same,GI50,[61],409 µM (inactive)
same,GI50,[62],240 µM (inactive)
same,GI50,[18],443 µM (inactive)
same,GI50,[20],442 µM (inactive)
same,GI50,[23],290 µM (inactive)
same,GI50,[24],244 µM (inactive)
same,GI50,[25],143 µM (inactive)
same,GI50,[63],292 µM (inactive)
same,GI50,[53],353 µM (inactive)
same,GI50,[64],419 µM (inactive)
same,GI50,[54],359 µM (inactive)
same,GI50,[65],582 µM (inactive)
same,GI50,[28],394 µM (inactive)
same,GI50,[29],348 µM (inactive)
same,GI50,[30],429 µM (inactive)
same,GI50,[31],536 µM (inactive)
same,GI50,[32],57.4 µM (inactive)
same,GI50,[33],381 µM (inactive)
same,GI50,[66],635 µM (inactive)
same,GI50,[35],432 µM (inactive)
same,GI50,[36],451 µM (inactive)
same,GI50,[37],190 µM (inactive)
same,GI50,[38],284 µM (inactive)
same,GI50,[39],384 µM (inactive)
same,GI50,[40],418 µM (inactive)
same,GI50,[57],196 µM (inactive)
same,GI50,[42],353 µM (inactive)
same,GI50,[67],362 µM (inactive)
same,GI50,[43],265 µM (inactive)
same,GI50,[44],79.6 µM (inactive)
same,GI50,[45],322 µM (inactive)
same,GI50,[46],193 µM (inactive)
same,GI50,[47],495 µM (inactive)
same,GI50,[48],441 µM (inactive)
same,GI50,[49],439 µM (inactive)
